Assay results: the NIST ThermoML archive (doi:10.1016/j.jct.2014.06.012)

Test: molar heat capacity at constant pressure
Settings: 101.33 kPa, Vacuum adiabatic calorimetry

O=P([O-])([O-])[O-].[Cs+].[Mn+2] [cesium manganese(II) phosphate]
molar heat capacity at constant pressure [J/K/mol]
Settings | Crystal 2 | Crystal 3
5 K | – | 1.713
5.85 K | – | 2.328
6 K | – | 2.918
6.04 K | – | 3.492
6.34 K | – | 4.989
6.38 K | – | 5.654
6.59 K | – | 21.87
6.73 K | – | 13.64
6.86 K | – | 41.07
6.9 K | 4.573 | 4.282
7 K | 4.623 | –
7.01 K | 15.8 | –
7.32 K | 9.146 | –
7.33 K | 6.236 | –
7.8 K | 5.986 | –
8 K | 4.972 | –
8.09 K | 5.321 | –
8.15 K | 5.82 | –
8.3 K | 5.488 | –
8.79 K | 5.238 | –
9 K | 5.271 | –
9.13 K | 5.488 | –
9.54 K | 5.404 | –
9.95 K | 5.654 | –
10 K | 5.579 | –
10.3 K | 5.654 | –
11.03 K | 5.903 | –
11.57 K | 6.319 | –
12.47 K | 6.818 | –
12.55 K | 6.901 | –
13.98 K | 7.816 | –
15 K | 8.647 | –
15.39 K | 8.98 | –
16.79 K | 10.24 | –
18.22 K | 11.6 | –
19.65 K | 12.95 | –
20 K | 13.29 | –
20.79 K | 14.05 | –
21.93 K | 15.15 | –
23.17 K | 16.48 | –
24.41 K | 17.81 | –
25 K | 18.42 | –
26.16 K | 19.68 | –
27.91 K | 21.56 | –
29.7 K | 23.55 | –
30 K | 23.85 | –
30.98 K | 25 | –
31.52 K | 25.55 | –
32.86 K | 26.96 | –
34.2 K | 28.45 | –
35 K | 29.29 | –
36 K | 30.31 | –
37.79 K | 32.15 | –
39.59 K | 33.82 | –
40 K | 34.22 | –
41.48 K | 35.49 | –
43.18 K | 36.82 | –
45 K | 38.16 | –
45.05 K | 38.3 | –
46.84 K | 39.62 | –
48.73 K | 41.07 | –
50 K | 42.05 | –
50.55 K | 42.5 | –
52.38 K | 44 | –
54.21 K | 45.4 | –
56.04 K | 46.79 | –
57.87 K | 48.08 | –
59.7 K | 49.36 | –
60 K | 49.65 | –
61.53 K | 50.69 | –
63.37 K | 52 | –
65.2 K | 53.24 | –
67.03 K | 54.47 | –
68.87 K | 55.66 | –
70 K | 56.41 | –
70.7 K | 56.85 | –
72.42 K | 57.92 | –
73.98 K | 58.82 | –
75.54 K | 59.72 | –
76.62 K | 60.35 | –
77.7 K | 60.98 | –
78.93 K | 61.69 | –
79.65 K | 62.09 | –
80 K | 62.23 | –
80.15 K | 62.42 | –
81.49 K | 63.07 | –
82.19 K | 63.43 | –
82.8 K | 63.72 | –
84.9 K | 64.7 | –
